Test results taken from publication PMC13242511, “Disrupting Notch signalling by a small molecule inhibiting dihydroorotate dehydrogenase activity” (Scientific Reports, 2026).
Like-named read-outs stand apart in the source and are kept apart here.

Tests used:
Format in all cases: cell-based
[1] = biological target: γ-secretase complex (Homo sapiens, UniProt P49768); experiment: APP-C99 counter assay (GSI reporter assay); design: AUC APP: scale not given here; conditions: for 3p-DR in % of DMSO counter / remaining activity at 10 µM / remaining activity at 25 µM / remaining activity at […]: APP-C99 counter assay; for Hill-slope / curve fit information: 14p APP assay DR, bottom constrained to Emax of positive control LY-411575; for remaining activity at 10 µM / remaining activity at 25 µM / remaining activity at […]: 24 h, read-out: 3p-DR in % of DMSO counter; for AUC APP: area under the 14-point dose-response curve, replicates averaged
Procedure, shortened: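 γ-secretase activity reported via APP cleavage driving firefly luciferase, normalized to renilla. After 24 h transfection then 24 h compound exposure, signals were read (0.1 s integration). Triplicate dose–responses fitted by variable-slope four-parameter model for IC50; area under curve also derived.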

[2] = tested on: Notch signalling; experiment: Notch reporter assay (12xCSL firefly luciferase / renilla luciferase, HEK293T Notch1ΔE reporter cell line clone #A1-11); design: AUC Notch: scale not given here; Confirmation screen: unit not given here; conditions: for Bottom (Emax): Emax indicated independent from assay constraints, in % (unit assumed); for IC50 / activity at 10 µM / activity at 25 µM / activity: Homo sapiens, HEK-293T; for AUC Notch: area under the 14-point dose-response curve, replicates averaged
Procedure, shortened: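 Compounds at two-fold concentration in 10 µl medium were brought to one-fold by adding 10 µl holding 4000 Notch reporter cells (clone #A1-11) per well of a 384-well plate. After 24 h, Promega dual-GLO firefly and renilla luciferase were read on a SpectraMaxi3. Dose-response curves were fitted with a log(inhibitor) vs. response variable-slope model.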

[3] = tested on: Notch signalling; experiment: as above; conditions: 24 h, unit from Fig. 2 legend
[4] = 10 µM, sheet conf vs counter 10 µM
[5] = 25 µM, sheet "conf vs counter 25 µM", same values given as % of DMSO in sheet "3p-DR in % of DMSO counter"
[6] = 10µM, 3-point DR confirmation screen, Notch reporter assay
[7] = 10 µM, sheet conf vs counter 10 µM, same values as 3-point DR confirmation screen
[8] = 25µM, 3-point DR confirmation screen, Notch reporter assay
[9] = 25 µM, Notch reporter 3-point dose-confirmation assay, sheet "conf vs counter 25 µM"
[10] = 1,25µM, 3-point DR confirmation screen, Notch reporter assay
[11] = 14p Notch assay DR, bottom constrained to Emax of positive control DAPT, read-out: approximated IC50
[12] = 14p Notch assay DR, log10 value, bottom constrained to Emax of positive control DAPT, read-out: approximated LogIC50 (converted)
[13] = 10 µM, primary screen, 24 h, unit from Fig. 2 legend, read-out: Primary screen at 10 µM (Notch reporter signal)
[14] = 10 µM, three-dose confirmation screen, unit from Fig. 2 legend, read-out: Hit confirmation at 10 µM (Notch reporter signal)
[15] = 10µM, 3-point DR confirmation screen, Notch reporter assay, read-out: inhibitor ratio in % of DMSO in 3 point DR
[16] = 10 µM, sheet conf vs counter 10 µM, same values as 3-point DR confirmation screen, read-out: Confirmation screen
[17] = 25µM, 3-point DR confirmation screen, Notch reporter assay, read-out: inhibitor ratio in % of DMSO in 3 point DR
[18] = 25 µM, Notch reporter 3-point dose-confirmation assay, sheet "conf vs counter 25 µM", read-out: Confirmation screen
[19] = 1,25µM, 3-point DR confirmation screen, Notch reporter assay, read-out: inhibitor ratio in % of DMSO in 3 point DR
[20] = overview in comparison to compound C, Supplemental Fig. 9

COc1ccc(-c2noc([C@@H]3Cc4[nH]cnc4CN3C(=O)CCC(=O)O)n2)cc1 [CBK288967]
3p-DR in % of DMSO counter ([1]; 10µM): 62.4 % of DMSO | Counter screen (Hek APP-C99) [1, 4]: 62.4 | 3p-DR in % of DMSO counter ([1]; 25µM): 22.0 % of DMSO | Counter screen (Hek APP-C99) [1, 5]: 22.0 | 3p-DR in % of DMSO counter ([1]; 1,25µM): 131.3 % of DMSO | inhibitor ratio in % of DMSO in 3 point DR [2, 6]: 51.6 % of DMSO | Confirmation screen [2, 7]: 51.6 | inhibitor ratio in % of DMSO in 3 point DR [2, 8]: 56.4 % of DMSO | Confirmation screen [2, 9]: 56.4 | inhibitor ratio in % of DMSO in 3 point DR [2, 10]: 72.4 % of DMSO | Primary screen at 10 µM (Notch reporter signal) [3]: 51.7 % of DMSO

COc1cc(Nc2cc(-c3ccccc3N(C)C)ncn2)cc(OC)c1OC [CBK090702]
3p-DR in % of DMSO counter ([1]; 10µM): 148.1 % of DMSO | Counter screen (Hek APP-C99) [1, 4]: 148.1 | 3p-DR in % of DMSO counter ([1]; 25µM): 225.5 % of DMSO | Counter screen (Hek APP-C99) [1, 5]: 225.5 | 3p-DR in % of DMSO counter ([1]; 1,25µM): 124.5 % of DMSO | inhibitor ratio in % of DMSO in 3 point DR [2, 6]: 85.7 % of DMSO | Confirmation screen [2, 7]: 85.7 | inhibitor ratio in % of DMSO in 3 point DR [2, 8]: 55.7 % of DMSO | Confirmation screen [2, 9]: 55.7 | inhibitor ratio in % of DMSO in 3 point DR [2, 10]: 97.2 % of DMSO | Primary screen at 10 µM (Notch reporter signal) [3]: 68.4 % of DMSO

O=C(Nc1sccc1C(=O)N1CCOCC1)C(Sc1ccccc1)c1ccccc1 (stereo not shown) [CBK268165]
3p-DR in % of DMSO counter ([1]; 10µM): 58.6 % of DMSO | Counter screen (Hek APP-C99) [1, 4]: 58.6 | 3p-DR in % of DMSO counter ([1]; 25µM): 58.2 % of DMSO | Counter screen (Hek APP-C99) [1, 5]: 58.2 | 3p-DR in % of DMSO counter ([1]; 1,25µM): 84.7 % of DMSO | inhibitor ratio in % of DMSO in 3 point DR [2, 6]: 60.1 % of DMSO | Confirmation screen [2, 7]: 60.1 | inhibitor ratio in % of DMSO in 3 point DR [2, 8]: 57.1 % of DMSO | Confirmation screen [2, 9]: 57.1 | inhibitor ratio in % of DMSO in 3 point DR [2, 10]: 101.2 % of DMSO | Primary screen at 10 µM (Notch reporter signal) [3]: 64.8 % of DMSO

CCOc1ccccc1-c1ccccc1NC(=O)c1ccc2c(c1)ncn2C1CC1 [CBK285808]
Hill-slope [1]: 0.0761 | remaining activity at 10 µM ([1]; 10µM): 165% | remaining activity at 25 µM ([1]; 25µM): 197% | remaining activity at […] ([1]; 1,25µM): 113% | AUC APP [1]: 538.6 | Bottom (Emax) ([2]; 14p Notch assay DR): 26.5 | IC50 [2, 11]: 5.1 µM | IC50 [2, 12]: 5.01 µM | activity at 10 µM [2, 13]: 35.1% | activity at 10 µM [2, 14]: 64.7% | activity at 10 µM [2, 15]: 64.7% | activity at 10 µM [2, 16]: 64.7% | activity at 25 µM [2, 17]: 45.7% | activity at 25 µM [2, 18]: 45.7% | activity [2, 19]: 102% | AUC Notch [2]: 300.0

CC(=O)Nc1cccc(-c2cn3ccnc3c(Nc3ccc(N4CCOCC4)cc3)n2)c1 [CBK066362]
Hill-slope [1]: 0.3 | AUC APP [1]: 828.0 | Bottom (Emax) ([2]; 14p Notch assay DR): 95.3 | AUC Notch [2]: 529.0

COc1cc(Nc2nc(-c3ccc(Cl)cc3)cn3ccnc23)cc(OC)c1OC [CBK066238]
Hill-slope [1]: 0.0221 | AUC APP [1]: 492.9 | Bottom (Emax) ([2]; 14p Notch assay DR): 82.4 | AUC Notch [2]: 336.0

Cc1ccc(-c2noc([C@@H]3Cc4[nH]cnc4CN3C(=O)CCC(=O)O)n2)cc1 [CBK288958]
Hill-slope [1]: -0.00263 | remaining activity at 10 µM ([1]; 10µM): 115% | remaining activity at 25 µM ([1]; 25µM): 129% | remaining activity at […] ([1]; 1,25µM): 119% | AUC APP [1]: 662.9 | Bottom (Emax) ([2]; 14p Notch assay DR): 57.4 | IC50 [2, 11]: 3.2 µM | IC50 [2, 12]: 3.16 µM | activity at 10 µM [2, 13]: 50.2% | activity at 10 µM [2, 14]: 49.6% | activity at 10 µM [2, 15]: 49.6% | activity at 10 µM [2, 16]: 49.6% | activity at 25 µM [2, 17]: 32.2% | activity at 25 µM [2, 18]: 32.2% | activity [2, 19]: 87.5% | AUC Notch [2]: 600.0

COc1cc(Nc2nc(-c3ccc(F)c(Cl)c3)cn3ccnc23)cc(OC)c1OC [CBK037275]
Hill-slope [1]: -0.9 | AUC APP [1]: 479.3 | Bottom (Emax) ([2]; 14p Notch assay DR): 90.9 | AUC Notch [2]: 361.0

COc1cc(Nc2nc(-c3cccc(NC(C)=O)c3)cn3ccnc23)cc(OC)c1OC [CBK038093]
Hill-slope [1]: 0.0389 | remaining activity at 10 µM ([1]; 10µM): 180% | remaining activity at 25 µM ([1]; 25µM): 242% | remaining activity at […] ([1]; 1,25µM): 132% | AUC APP [1]: 493.6 | Bottom (Emax) ([2]; 14p Notch assay DR): 21.1 | IC50 [2, 11]: 5.6 µM | IC50 [2, 12]: 5.01 µM | activity at 10 µM [2, 13]: 46.2% | activity at 10 µM [2, 14]: 56.1% | activity at 10 µM [2, 15]: 56.1% | activity at 10 µM [2, 16]: 56.1% | activity at 25 µM [2, 17]: 41.5% | activity at 25 µM [2, 18]: 41.5% | activity [2, 19]: 96.6% | AUC Notch [2]: 304.0

CC(C)[C@H](O)C(=O)N[C@@H](C)C(=O)N[C@@H]1C(=O)N(C)CCc2ccccc21 [LY-450139, Semagacestat, reference compound]
APP assay [1, 20]: active, potency n.d. | reporter signal in % of DMSO ([2]; 10 µM, inhibitor controls, Supplemental Fig. 2A): 52% | Notch assay [2, 20]: active, potency n.d.

Cc1ccccc1CN1CCC2(CC1)OCCc1c2n(C)c2ccccc12 [CBK040366]
Hill-slope [1]: 4.29e-13 | curve fit information [1]: IC50 indeterminate | AUC APP [1]: 658.0 | approximated IC50, Notch reporter assay ([2]; 14-point dose-response, Fig. 4): Indeterminate | Bottom (Emax) ([2]; 14p Notch assay DR): 104.0 | AUC Notch [2]: 632.0

Cc1c(C(C)NC(=O)c2[nH]c3ccccc3c2Cl)cnn1C (stereo not shown) [CBK246640]
Hill-slope [1]: 0.0225 | AUC APP [1]: 737.0 | approximated IC50, Notch reporter assay ([2]; 14-point dose-response, Fig. 4): Indeterminate | Bottom (Emax) ([2]; 14p Notch assay DR): 91.1 | AUC Notch [2]: 612.0

COc1cc(-c2cn3ccnc3c(Nc3ccccc3)n2)cc(OC)c1OC [CBK066200]
Hill-slope [1]: -8.75e-10 | curve fit information [1]: IC50 indeterminate | AUC APP [1]: 496.5 | Bottom (Emax) ([2]; 14p Notch assay DR): 65.6 | IC50 [2, 11]: 36 µM | IC50 [2, 12]: 39.8 µM | AUC Notch [2]: 329.0

COc1cc(Nc2cncc(-c3cccc(N(C)C)c3)n2)cc(OC)c1OC [CBK065722]
Hill-slope [1]: -0.00462 | AUC APP [1]: 501.6 | Bottom (Emax) ([2]; 14p Notch assay DR): 82.6 | IC50 [2, 11]: > 40 µM | IC50 [2, 12]: > 40 µM | AUC Notch [2]: 354.0

Cc1cc(O)n(-c2nc3ccccc3s2)n1 [CBK007453]
Hill-slope [1]: -0.00928 | AUC APP [1]: 674.5 | Bottom (Emax) ([2]; 14p Notch assay DR): 95.0 | IC50 ([2]; 14-point dose-response, Fig. 4, read-out: approximated IC50, Notch reporter assay): > 40 µM | IC50 [2, 11]: > 40 µM | IC50 [2, 12]: > 40 µM | AUC Notch [2]: 628.0
